What was measured:
DLD-1 = assay: MTS Assay (cell growth inhibition), DLD-1; assay type: cell-based; settings: DLD-1 cells, 72 hours with test compound; concentration not given
Method: (§1) Cells were maintained at 37° C., 5% CO2 in DMEM media supplemented with 1% fetal bovine serum, penicillin/streptomycin and fungizone (Invitrogen). Cells were seeded into 96-well tissue culture plates at 3000 per well and cultured at 37° C. for 18 hours. Test compounds were dissolved and diluted to 300× in DMSO then diluted 1:40 in DMEM. Cells were incubated with test compounds for 72 hours followed by incubation with tetrazolium compound (3-(4,5-dimethylthiazol-2-yl)-5-(3-carboxymethoxyphenyl)-2-(4-sulfophenyl)-2H-tetrazolium, inner salt; MTS) and the electron coupling reagent, phenazine methosulfate (PMS) for 4 hours. […] The ability of compounds to inhibit cell growth in this assay is correlated with the reduction of dehydrogenase enzyme activity found in metabolically active cells. The measurement of the absorbance of the formazan was assessed using an ENVISION™ (Perkin Elmer) microplate reader at 492 nm. The calculated IC50 value is the concentration of the test compound that causes a 50% decrease in the absorbance.

Kato III = assay: MTS Assay (cell growth inhibition), Kato III; assay type: cell-based; settings: Kato III cells, 72 hours with test compound; concentration not given
Method: as §1

MDA-MB 231 = assay: MTS Assay (cell growth inhibition), MDA-MB 231; assay type: cell-based; settings: MDA-MB 231 cells, 72 hours with test compound; concentration not given
Method: as §1

NCI-H1299 = assay: MTS Assay (cell growth inhibition), NCI-H1299; assay type: cell-based; settings: NCI-H1299 cells, 72 hours with test compound; concentration not given
Method: as §1

PACA-2 = assay: MTS Assay (cell growth inhibition), PACA-2; assay type: cell-based; settings: PACA-2 cells, 72 hours with test compound; concentration not given
Method: as §1

PC-3 = assay: MTS Assay (cell growth inhibition), PC-3; assay type: cell-based; settings: PC-3 cells, 72 hours with test compound; concentration not given
Method: as §1

Tec kinase = target: T1, Tec kinase (Homo sapiens, UniProt P42680); assay: Tec Kinase Activity Assay; assay type: biochemical; settings: 75 μM ATP, Pyk-2 substrate; compound concentration not given
T1 sequence (P42680 1-631): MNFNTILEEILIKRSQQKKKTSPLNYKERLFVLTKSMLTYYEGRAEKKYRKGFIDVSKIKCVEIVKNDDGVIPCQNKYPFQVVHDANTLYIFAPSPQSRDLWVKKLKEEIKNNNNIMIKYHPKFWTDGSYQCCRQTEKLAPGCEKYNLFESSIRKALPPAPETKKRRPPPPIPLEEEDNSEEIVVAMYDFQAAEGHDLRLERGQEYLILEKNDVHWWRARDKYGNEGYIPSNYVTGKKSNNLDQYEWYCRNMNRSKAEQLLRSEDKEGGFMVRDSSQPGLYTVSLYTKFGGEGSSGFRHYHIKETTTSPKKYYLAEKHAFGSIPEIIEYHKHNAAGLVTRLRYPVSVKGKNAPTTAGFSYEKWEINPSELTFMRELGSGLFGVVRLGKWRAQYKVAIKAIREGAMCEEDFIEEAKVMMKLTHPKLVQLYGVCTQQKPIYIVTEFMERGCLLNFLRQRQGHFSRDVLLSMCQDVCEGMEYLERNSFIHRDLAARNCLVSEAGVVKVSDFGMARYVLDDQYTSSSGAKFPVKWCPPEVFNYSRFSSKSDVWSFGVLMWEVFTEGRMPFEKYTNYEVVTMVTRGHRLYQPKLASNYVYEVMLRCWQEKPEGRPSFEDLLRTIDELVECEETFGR
Method: The disclosed compounds were assayed for their ability to inhibit the activity of Tec kinase. Nunc Maxisorb plates were coated with streptavidin by overnight incubation with 100 μl per well of 1 μg/ml Streptavidin in DPBS. Prior to the start of the experiment, the plates were washed with TBST (3×200 μl) and blocked for at least 1 hour by adding 150 μl of 5% BSA/TBST. The plates were then washed with TBST (3×200 μl/well) and left dry immediately before the capture step.
The disclosed test compounds and controls (Staurosporine and Sutent) were prepared using the following assay buffer (50 mM Tris-HCl, 0.02 mg/ml BSA, 10 mM MgCl2, 0.1 mM Na3VO4, 1 mM EGTA, 75 μM ATP, 0.01% NP-40, 2 mM DTT in 10% glycerol/water) at 3× desired final concentration. 20 μl of the test compounds (or control) and 20 μl TEC (0.25 ng/μl) were rapidly added to a reaction plate. The plate was incubated for 30 minutes. 20 μl of Pyk-2 (0.5 ng/μl) was then added to the reaction plate. The plate was incubated at room temperature for two hours.
50 μl was transferred from the reaction plate to the streptavidin coated plate. The capture plate was incubated at room temperature for 30 minutes then washed with TBST 6 times. 100 μl/well of Cell Signaling anti-phospho tyrosine was added to the capture plate at a dilution of 1:3000 in 2% BSA/TBST. The plate was incubated for one hour at room temperature then washed with TBST 6 times. 100 μl/well of alkaline phosphatase tagged goat anti-mouse antibody was added to the capture plate at a dilution of 1:4000 in 2% BSA/TBST. The plate was incubated for one hour at room temperature then washed with TBST 6 times.
The fluorescent readout was initiated by the addition of 100 μl/well of Attophos reagent (6 mg/10 ml) and the reading was done on the Perkin Elmer Envision system.

| SMILES | MTS cell kill data (% inhibition) DLD-1 (DLD-1) | MTS cell kill data (% inhibition) Kato III (Kato III) | MTS cell kill data (% inhibition) MDA-MB 231 (MDA-MB 231) | MTS cell kill data (% inhibition) NCI-H1299 (NCI-H1299) | MTS cell kill data (% inhibition) PACA-2 (PACA-2) | MTS cell kill data (% inhibition) PC-3 (PC-3) | Biochemical IC50 (% inhibition) Tec (Tec kinase) |
| --- | --- | --- | --- | --- | --- | --- | --- |
| Brc1n[nH]c2ncnc(N3CCc4c([nH]c5ccccc45)C3)c12 [Compound 1, 2-(3-bromo-1H-pyrazolo[3,4-d]pyrimidin-4-yl)-2,3,4,9-tetrahydro-1H-beta-carboline] | B (B = 50-79% inhibition) | A (A = 80-100% inhibition) | C (C = <50% inhibition) | B (B = 50-79% inhibition) | B (B = 50-79% inhibition) | C (C = <50% inhibition) | – |
| Fc1c(Cl)cccc1C1c2[nH]c3ccccc3c2CCN1c1ncnc2[nH]ccc12 (stereo not drawn) [Compound 2, 1-(3-chloro-2-fluorophenyl)-2-(7H-pyrrolo[2,3-d]pyrimidin-4-yl)-2,3,4,9-tetrahydro-1H-beta-carboline] | A (A = 80-100% inhibition) | A (A = 80-100% inhibition) | A (A = 80-100% inhibition) | A (A = 80-100% inhibition) | A (A = 80-100% inhibition) | A (A = 80-100% inhibition) | C (C = <50% inhibition) |
| Fc1c(Cl)cccc1C1c2[nH]c3ccccc3c2CCN1c1ncnc2[nH]cnc12 (stereo not drawn) [Compound 3, 1-(3-chloro-2-fluorophenyl)-2-(9H-purin-6-yl)-2,3,4,9-tetrahydro-1H-beta-carboline] | B (B = 50-79% inhibition) | B (B = 50-79% inhibition) | C (C = <50% inhibition) | B (B = 50-79% inhibition) | C (C = <50% inhibition) | C (C = <50% inhibition) | C (C = <50% inhibition) |
| Fc1ccc(C2c3[nH]c4ccccc4c3CCN2c2ncnc3[nH]ccc23)cc1 (stereo not drawn) [Compound 4, 1-(4-fluorophenyl)-2-(7H-pyrrolo[2,3-d]pyrimidin-4-yl)-2,3,4,9-tetrahydro-1H-beta-carboline] | B (B = 50-79% inhibition) | B (B = 50-79% inhibition) | C (C = <50% inhibition) | B (B = 50-79% inhibition) | B (B = 50-79% inhibition) | C (C = <50% inhibition) | B (B = 50-79% inhibition) |
| Fc1ccc(C2c3[nH]c4ccccc4c3CCN2c2ncnc3[nH]cnc23)cc1 (stereo not drawn) [Compound 5, 1-(4-fluorophenyl)-2-(9H-purin-6-yl)-2,3,4,9-tetrahydro-1H-beta-carboline] | C (C = <50% inhibition) | A (A = 80-100% inhibition) | A (A = 80-100% inhibition) | B (B = 50-79% inhibition) | C (C = <50% inhibition) | A (A = 80-100% inhibition) | C (C = <50% inhibition) |
| Fc1ccc(C2c3[nH]c4ccccc4c3CCN2c2ncnc3[nH]ncc23)cc1 (stereo not drawn) [Compound 6, 1-(4-fluorophenyl)-2-(1H-pyrazolo[3,4-d]pyrimidin-4-yl)-2,3,4,9-tetrahydro-1H-beta-carboline] | B (B = 50-79% inhibition) | A (A = 80-100% inhibition) | A (A = 80-100% inhibition) | B (B = 50-79% inhibition) | B (B = 50-79% inhibition) | C (C = <50% inhibition) | B (B = 50-79% inhibition) |
| Nc1nc(N2CCc3c([nH]c4ccccc34)C2c2cccc(C(F)(F)F)c2)c2cn[nH]c2n1 (stereo not drawn) [Compound 7, 4-{1-[3-(trifluoromethyl)phenyl]-1,3,4,9-tetrahydro-2H-beta-carbolin-2-yl}-1H-pyrazolo[3,4-d]pyrimidin-6-amine] | C (C = <50% inhibition) | C (C = <50% inhibition) | B (B = 50-79% inhibition) | C (C = <50% inhibition) | C (C = <50% inhibition) | A (A = 80-100% inhibition) | C (C = <50% inhibition) |
| FC(F)(F)c1cccc(C2c3[nH]c4ccccc4c3CCN2c2ncnc3[nH]cnc23)c1 (stereo not drawn) [Compound 8, 2-(9H-purin-6-yl)-1-[3-(trifluoromethyl)phenyl]-2,3,4,9-tetrahydro-1H-beta-carboline] | A (A = 80-100% inhibition) | A (A = 80-100% inhibition) | A (A = 80-100% inhibition) | A (A = 80-100% inhibition) | B (B = 50-79% inhibition) | A (A = 80-100% inhibition) | C (C = <50% inhibition) |
| FC(F)(F)c1cccc(C2c3[nH]c4ccccc4c3CCN2c2ncnc3[nH]ncc23)c1 (stereo not drawn) [Compound 9, 2-(1H-pyrazolo[3,4-d]pyrimidin-4-yl)-1-[3-(trifluoromethyl)phenyl]-2,3,4,9-tetrahydro-1H-beta-carboline] | B (B = 50-79% inhibition) | B (B = 50-79% inhibition) | B (B = 50-79% inhibition) | B (B = 50-79% inhibition) | B (B = 50-79% inhibition) | C (C = <50% inhibition) | B (B = 50-79% inhibition) |

Source: patent US8497276B2, “Substituted indolo-piperidine compounds” (ArQule, Inc., priority 2009, dated 2013)
